Measured values: PubChem BioAssay AID342 (DTP/NCI, 2004)
Where “and” joins values, the source holds several entries; their conditions need not be identical. Equal entries are not always repeated.

Test system: Swiss mice, Sarcoma 180 sc, mean tumor weight T/C
Test: NCI In Vivo Anticancer Drug Screen. Data for tumor model Sarcoma 180 (subcutaneous) in Swiss mice
Conditions: endpoint: mean tumor weight, higher = larger tumour
How it was run: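 Antitumor activity is assessed in mice with transplantable tumors. Treated (T) and vehicle control (C) groups are compared on survival or tumor size.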

[1] = dose: 15.0 mg/kg/injection, schedule: Q01DX007 (ip), vehicle: carboxymethylcellulose (CMC)
[2] = dose: 25.0 mg/kg/injection, schedule: Q#A X014 (ip), vehicle: carboxymethylcellulose (CMC)

Structure (SMILES): Cc1ccc(N=NN(C)C)cc1
- T/C (dose: 9.8 mg/kg/injection, schedule: Q01DX007 (ip), vehicle: carboxymethylcellulose (CMC)): 86 % of control
- T/C (dose: 14.8 mg/kg/injection, schedule: Q01DX007 (ip), vehicle: carboxymethylcellulose (CMC)): 70 % of control
- T/C [1]: 62 % of control
- T/C (dose: 16.65 mg/kg/injection, schedule: Q#A X014 (ip), vehicle: carboxymethylcellulose (CMC)): 45 % of control
- T/C (dose: 22.2 mg/kg/injection, schedule: Q01DX007 (ip), vehicle: carboxymethylcellulose (CMC)): 49 % of control
- T/C [2]: 43 % of control
- T/C (dose: 33.3 mg/kg/injection, schedule: Q01DX007 (ip), vehicle: carboxymethylcellulose (CMC)): 60 % of control
- T/C (dose: 37.5 mg/kg/injection, schedule: Q#A X014 (ip), vehicle: carboxymethylcellulose (CMC)): 30 % of control
- T/C (dose: 56.0 mg/kg/injection, schedule: Q#A X014 (ip), vehicle: carboxymethylcellulose (CMC)): 14 % of control
- T/C (dose: 56.25 mg/kg/injection, schedule: Q#A X014 (ip), vehicle: methylcellulose (MC)): 36 % of control and 38 % of control
- T/C (dose: 115.0 mg/kg/injection, schedule: Q01DX007 (ip), vehicle: carboxymethylcellulose (CMC)): 34 % of control

Structure (SMILES): Fc1ccc(NC(=S)Nc2cc(Cl)cc(Cl)c2)cc1
- T/C [1]: 115 % of control
- T/C (dose: 30.0 mg/kg/injection, schedule: Q01DX007 (ip), vehicle: carboxymethylcellulose (CMC)): 117 % of control

Structure (SMILES): CC1OC2CC(=O)OC2C2=C1C(=O)c1c(O)c3c(c(O)c1C2=O)C1CC(O)C3(O)C(C)O1 (stereo not drawn)
- T/C (dose: 0.01 mg/kg/injection, schedule: Q01DX007 (ip), vehicle: saline): 114 % of control
- T/C (dose: 0.03 mg/kg/injection, schedule: Q01DX007 (ip), vehicle: saline): 112 % of control
- T/C (dose: 0.1 mg/kg/injection, schedule: Q01DX007 (ip), vehicle: saline): 112 % of control
- T/C (dose: 0.2 mg/kg/injection, schedule: Q01DX007 (ip), vehicle: saline): 113 % of control
- T/C (dose: 0.4 mg/kg/injection, schedule: Q01DX007 (ip), vehicle: saline): 116 % of control
- T/C (dose: 0.8 mg/kg/injection, schedule: Q01DX007 (ip), vehicle: saline): 99 % of control
- T/C (dose: 1.6 mg/kg/injection, schedule: Q01DX007 (ip), vehicle: saline): 94 % of control
- T/C (dose: 6.4 mg/kg/injection, schedule: Q01DX007 (ip), vehicle: saline): 79 % of control
- T/C (dose: 12.0 mg/kg/injection, schedule: Q01DX007 (ip), vehicle: saline): 88 % of control
- T/C (dose: 12.8 mg/kg/injection, schedule: Q01DX007 (ip), vehicle: saline): 64 % of control
- T/C (dose: 24.0 mg/kg/injection, schedule: Q01DX007 (ip), vehicle: saline): 61 % of control

Structure (SMILES): Nc1cccc2c(=O)[nH][nH]c(=O)c12
- T/C (dose: 62.5 mg/kg/injection, schedule: Q01DX007 (ip), vehicle: water): 119 % of control
- T/C (dose: 125.0 mg/kg/injection, schedule: Q01DX007 (ip), vehicle: water): 118 % of control
- T/C (dose: 250.0 mg/kg/injection, schedule: Q01DX007 (ip), vehicle: water): 61 % of control
- T/C (dose: 375.0 mg/kg/injection, schedule: Q01DX007 (ip), vehicle: water): 85 % of control

Structure (SMILES): O=P(Oc1ccccc1)(OP(=O)(Oc1ccccc1)N(CCCl)CCCl)N(CCCl)CCCl (stereo not drawn)
- T/C (dose: 12.5 mg/kg/injection, schedule: Q#A X014 (ip), vehicle: other): 85 % of control
- T/C (dose: 25.0 mg/kg/injection, schedule: Q#A X014 (ip), vehicle: other): 76 % of control
- T/C (dose: 50.0 mg/kg/injection, schedule: Q#A X014 (ip), vehicle: other): 112 % of control

Structure (SMILES): CCC(c1ccc2cc(OC)ccc2c1)C(C)(C)C(=O)F (stereo not drawn)
- T/C (dose: 55.0 mg/kg/injection, schedule: Q01DX007 (sc), vehicle: steriod suspending solution): 35 % of control and 52 % of control
- T/C (dose: 83.0 mg/kg/injection, schedule: Q01DX007 (sc), vehicle: steriod suspending solution): 31 % of control and 49 % of control
- T/C (dose: 125.0 mg/kg/injection, schedule: Q01DX007 (sc), vehicle: steriod suspending solution): 27 % of control and 39 % of control
- T/C (dose: 188.0 mg/kg/injection, schedule: Q01DX007 (sc), vehicle: steriod suspending solution): 39 % of control and 40 % of control

Structure (SMILES): CN(Cc1cnc2nc(NCNC(=O)C3=C(O)[C@@]4(O)C(=O)C5=C(O)c6c(O)cccc6[C@@](C)(O)[C@H]5C[C@H]4[C@H](N(C)C)C3=O)nc(N)c2n1)c1ccc(C(=O)NC(CCC(=O)O)C(=O)O)cc1 (stereo partly drawn)
- T/C (dose: 1.5 mg/kg/injection, schedule: Q01DX007 (ip), vehicle: saline): 76 % of control
- T/C (dose: 3.0 mg/kg/injection, schedule: Q01DX007 (ip), vehicle: saline): 52 % of control
- T/C (dose: 6.0 mg/kg/injection, schedule: Q01DX007 (ip), vehicle: saline): 16 % of control

Structure (SMILES): CCCCN(CCCC)C(=O)c1[nH]cnc1N
- T/C (dose: 100.0 mg/kg/injection, schedule: Q01DX007 (ip), vehicle: carboxymethylcellulose (CMC)): 55 % of control
- T/C (dose: 200.0 mg/kg/injection, schedule: Q01DX007 (ip), vehicle: carboxymethylcellulose (CMC)): 58 % of control
- T/C (dose: 250.0 mg/kg/injection, schedule: Q01DX007 (ip), vehicle: carboxymethylcellulose (CMC)): 87 % of control
- T/C (dose: 375.0 mg/kg/injection, schedule: Q01DX007 (ip), vehicle: carboxymethylcellulose (CMC)): 57 % of control

Structure (SMILES): NC(=O)SCC(=O)Nc1ccc2ncccc2c1
- T/C (dose: 42.0 mg/kg/injection, schedule: Q#A X014 (ip), vehicle: methylcellulose (MC)): 84 % of control
- T/C (dose: 63.5 mg/kg/injection, schedule: Q#A X014 (ip), vehicle: methylcellulose (MC)): 76 % of control
- T/C (dose: 93.5 mg/kg/injection, schedule: Q#A X014 (ip), vehicle: methylcellulose (MC)): 58 % of control
- T/C (dose: 140.0 mg/kg/injection, schedule: Q#A X014 (ip), vehicle: methylcellulose (MC)): 56 % of control
- T/C (dose: 250.0 mg/kg/injection, schedule: Q01DX007 (ip), vehicle: other): 87 % of control
- T/C (dose: 500.0 mg/kg/injection, schedule: Q01DX007 (ip), vehicle: other): 46 % of control

Structure (SMILES): CC(=O)OC(C)(C)/C=C/C(=O)[C@](C)(O)[C@H]1[C@H](O)C[C@@]2(C)[C@@H]3CC=C4[C@@H](C=C(O)C(=O)C4(C)C)[C@]3(C)C(=O)C[C@]12C
- T/C (dose: 0.4 mg/kg/injection, schedule: Q01DX007 (ip), vehicle: carboxymethylcellulose (CMC)): 54 % of control
- T/C (dose: 0.8 mg/kg/injection, schedule: Q01DX007 (ip), vehicle: carboxymethylcellulose (CMC)): 29 % of control
- T/C (dose: 1.6 mg/kg/injection, schedule: Q01DX007 (ip), vehicle: carboxymethylcellulose (CMC)): 94 % of control
- T/C (dose: 3.2 mg/kg/injection, schedule: Q01DX007 (ip), vehicle: carboxymethylcellulose (CMC)): 88 % of control

Structure (SMILES): O=c1[nH]cc(C(F)(F)F)c(=O)[nH]1
- T/C (dose: 200.0 mg/kg/injection, schedule: Q01DX007 (ip), vehicle: saline): 63 % of control
- T/C (dose: 300.0 mg/kg/injection, schedule: Q01DX007 (ip), vehicle: saline): 73 % of control

Structure (SMILES): Nc1nc(N)c2[nH]cnc2n1
- T/C (dose: 6.25 mg/kg/injection, schedule: Q#A X014 (ip), vehicle: carboxymethylcellulose (CMC)): 106 % of control
- T/C (dose: 11.25 mg/kg/injection, schedule: Q#A X014 (ip), vehicle: carboxymethylcellulose (CMC)): 103 % of control
- T/C (dose: 22.5 mg/kg/injection, schedule: Q#A X014 (ip), vehicle: carboxymethylcellulose (CMC)): 83 % of control
- T/C [2]: 121 % of control
- T/C (dose: 45.0 mg/kg/injection, schedule: Q#A X014 (ip), vehicle: carboxymethylcellulose (CMC)): 68 % of control
- T/C (dose: 90.0 mg/kg/injection, schedule: Q#A X014 (ip), vehicle: carboxymethylcellulose (CMC)): 48 % of control

Structure (SMILES): CN(C)/C=N/c1nccs1
- T/C (dose: 83.0 mg/kg/injection, schedule: Q01DX007 (ip), vehicle: saline): 58 % of control and 70 % of control
- T/C (dose: 125.0 mg/kg/injection, schedule: Q01DX007 (ip), vehicle: saline): 34 % of control and 43 % of control

Structure (SMILES): CC(C)Sc1nc(N)nc2c1ncn2C1OC(CO)C(O)C1O (stereo not drawn)
- T/C (dose: 1.35 mg/kg/injection, schedule: Q#A X014 (ip), vehicle: methylcellulose (MC)): 69 % of control
- T/C (dose: 2.05 mg/kg/injection, schedule: Q#A X014 (ip), vehicle: methylcellulose (MC)): 95 % of control
- T/C (dose: 3.12 mg/kg/injection, schedule: Q#A X014 (ip), vehicle: methylcellulose (MC)): 53 % of control
- T/C (dose: 4.65 mg/kg/injection, schedule: Q#A X014 (ip), vehicle: methylcellulose (MC)): 86 % of control

Structure (SMILES): Clc1ccc(C[P+](c2ccccc2)(c2ccccc2)c2ccccc2)cc1Cl
- T/C (dose: 3.6 mg/kg/injection, schedule: Q01DX007 (ip), vehicle: carboxymethylcellulose (CMC)): 66 % of control and 69 % of control
- T/C (dose: 5.3 mg/kg/injection, schedule: Q01DX007 (ip), vehicle: carboxymethylcellulose (CMC)): 63 % of control and 71 % of control
- T/C (dose: 8.0 mg/kg/injection, schedule: Q01DX007 (ip), vehicle: carboxymethylcellulose (CMC)): 46 % of control

Structure (SMILES): CS(=O)(=O)OCCC(=O)N1CCN(C(=O)CCOS(C)(=O)=O)CC1
- T/C (dose: 12.5 mg/kg/injection, schedule: Q01DX007 (ip), vehicle: saline): 92 % of control
- T/C (dose: 25.0 mg/kg/injection, schedule: Q01DX007 (ip), vehicle: saline): 76 % of control and 100 % of control
- T/C (dose: 67.0 mg/kg/injection, schedule: Q#A X014 (ip), vehicle: methylcellulose (MC)): 8 % of control and 23 % of control
- T/C (dose: 150.0 mg/kg/injection, schedule: Q#A X014 (ip), vehicle: methylcellulose (MC)): 7 % of control
